2 molecules from US20240279184A1, “HETEROAROMATIC ANALOGUES OF 3-BENZYLMENADIONE DERIVATIVES AND PROCESSES FOR THEIR PREPARATION” (CENTRE NATIONAL DE LA RECHERCHE SCIENTIFIQUE, priority 2021, published 2024) can be followed below.

Experiment [1] relates to Plasmodium falciparum NF54 strain. The experiment in a line: primary screening of antimalarial activity, Plasmodium falciparum NF54 strain. Type of experiment: cell-based. As to conditions: for antimalarial activity compared with the regioisomer (potency and specificity): NF54 strain versus rat L6 myoblasts, MR00418 vs MR00397, MR00419 vs MR00407; for IC50: Plasmodium falciparum NF54 strain, first primary screening.

The test system of experiment [2] is rat L6 myoblast cell line. The experiment can be described thus: primary screening on the rat L6 myoblast cell line (specificity/cytotoxicity). Format: cell-based. As to conditions: first primary screening.

By IC50 is commonly meant the concentration needed to halve the response being measured. `CC1=C(Cc2ccc(C(F)(F)F)nc2)C(=O)c2ccccc2C1=O` [MRO0418, 2-methyl-3-((6-(trifluoromethyl)pyridin-3-yl)methyl) naphthalene-1,4-dione]: in experiment [1], the “antimalarial activity compared with the regioisomer (potency and specificity)” value was “more potent and specific antimalarial activities than the regioisomers”; the IC50 was 0.006 µM. Also, inhibition in experiment [2] was half-maximal at 179 µM (IC50).

Take `CC1=C(Cc2cnc(C(F)(F)F)nc2)C(=O)c2ccccc2C1=O` [MRO0419, 2-methyl-3-((2-(trifluoromethyl)pyrimidin-5-yl)methyl) naphthalene-1,4-dione]: in experiment [1], the “antimalarial activity compared with the regioisomer (potency and specificity)” value is “more potent and specific antimalarial activities than the regioisomers”; the midpoint of inhibition, the IC50, lay at 0.065 µM. Half-maximal inhibition in experiment [2] (IC50) required 48.3 µM.
